Experiments:
UACC-62 = assay: NCI60 anticancer drug screen; type: cell-based, human; settings: UACC-62 (Melanoma), 10 μM, 48 h
Source text: (§1) The aminocaproate-substituted corrole Complex 3 was submitted to NCI for cytotoxic screening at a single high dose (10−5M) in a panel of 60 human tumor cell lines (NCI60). Details of the cytotoxicity assessment in the NCI anticancer drug screen have been described previously, in Monks A, et al. (1991) Feasibility of a high-flux anticancer drug screen using a diverse panel of cultured human tumor cell lines. J Natl Cancer Inst 83(11):757-766, this reference being incorporated by reference for these teachings.
(§2) In view of the promising results observed for carboxylated corroles, Complex 3 was selected for expanded cell screening to uncover additional susceptible cancer cell lines. The cytotoxic activity of Complex 3 was tested at a dose of 10^−5 M against 60 human cancer cell lines representing nine distinct tumor types in the anticancer screening program of the National Cancer Institute (NCI). The in vitro parameters for cytotoxicity, growth percent, and lethality were obtained for Complex 3 and reported as a mean graph of the percent growth of treated cells (FIG. 7). Bars in the mean graph depict the deviation of individual tumor cell lines from the overall mean value for all cells tested. Bars that project to the right of the mean represent cell lines that are more sensitive to Complex 3, whereas cell lines less sensitive to the compound display bars that project to the left.
(§3) The numerical values associated with this assay represent growth relative to the no-drug control and the numbers of cells at time 0 (FIG. 7). This allows detection of both growth inhibition (values between 0 and 100) and lethality (values less than 0). For example, a value of 100 signifies no growth inhibition, 40 means 60% growth inhibition, 0 means no net growth over the course of the experiment, −40 means 40% lethality, and −100 indicates all cells are dead. […] Growth inhibitions reflect cytostatic activity of the compound as previously shown for Complex 2. In contrast, cell lethality is only evident in melanoma cells, specifically the LOX IMVI and SK-MEL-28 cell lines.

IGROV1 = assay: NCI60 anticancer drug screen; type: cell-based, human; settings: IGROV1 (Ovarian Cancer), 10 μM, 48 h
Source text: as §1, §2, §3

MOLT-4 = assay: NCI60 anticancer drug screen; type: cell-based, human; settings: MOLT-4 (Leukemia), 10 μM, 48 h
Source text: as §1, §2, §3

K-562 = assay: NCI60 anticancer drug screen; type: cell-based, human; settings: K-562 (Leukemia), 10 μM, 48 h
Source text: as §1, §2, §3

OVCAR-8 = assay: NCI60 anticancer drug screen; type: cell-based, human; settings: OVCAR-8 (Ovarian Cancer), 10 μM, 48 h
Source text: as §1, §2, §3

SF-268 = assay: NCI60 anticancer drug screen; type: cell-based, human; settings: SF-268 (CNS Cancer), 10 μM, 48 h
Source text: as §1, §2, §3

SK-MEL-2 = assay: NCI60 anticancer drug screen; type: cell-based, human; settings: SK-MEL-2 (Melanoma), 10 μM, 48 h
Source text: as §1, §2, §3

MALME-3M = assay: NCI60 anticancer drug screen; type: cell-based, human; settings: MALME-3M (Melanoma), 10 μM, 48 h
Source text: as §1, §2, §3

T-47D = assay: NCI60 anticancer drug screen; type: cell-based, human; settings: T-47D (Breast Cancer), 10 μM, 48 h
Source text: as §1, §2, §3

SF-539 = assay: NCI60 anticancer drug screen; type: cell-based, human; settings: SF-539 (CNS Cancer), 10 μM, 48 h
Source text: as §1, §2, §3

NCI-H322M = assay: NCI60 anticancer drug screen; type: cell-based, human; settings: NCI-H322M (Non-small-cell lung cancer), 10 μM, 48 h
Source text: as §1, §2, §3

SNB-75 = assay: NCI60 anticancer drug screen; type: cell-based, human; settings: SNB-75 (CNS Cancer), 10 μM, 48 h
Source text: as §1, §2, §3

SK-OV-3 = assay: NCI60 anticancer drug screen; type: cell-based, human; settings: SK-OV-3 (Ovarian Cancer), 10 μM, 48 h
Source text: as §1, §2, §3

CAK-1 = assay: NCI60 anticancer drug screen; type: cell-based, human; settings: CAK-1 (Renal Cancer), 10 μM, 48 h
Source text: as §1, §2, §3

MDA-MB-468 = assay: NCI60 anticancer drug screen; type: cell-based, human; settings: MDA-MB-468 (Breast Cancer), 10 μM, 48 h
Source text: as §1, §2, §3

RXF 398 = assay: NCI60 anticancer drug screen; type: cell-based, human; settings: RXF 398 (Renal Cancer), 10 μM, 48 h
Source text: as §1, §2, §3

[1] = test system: DU-145, SK-MEL-28, MDA-MB-231, OVCAR-3; assay: Uptake of gallium corroles (ImageXpress confocal), cell lines taken together; type: cell-based, human; settings: 30 μM, 37° C., dark
Description: The intracellular uptake of gallium corroles was quantified using the ImageXpressultra laser point-scanning confocal microscope (Molecular Devices). The fluorescence image acquisition settings were as previously reported (Lim P, et al. (2012), Chem Res Toxicol 25(2):400-409.). Cells (DU-145, SK-MEL-28, MDA-MB-231, and OVCAR-3) were seeded in 96-well dishes (8×10^3 cells per well in 0.1 mL) and allowed to attach overnight. Complex 1, 2, 3, or 4 was added directly to cell media at 30 μM final concentration or media only control, and incubated for 0.25, 1, 3, or 24 h at 37° C. in the dark under a 5% CO2 atmosphere. Cells were fixed and labeled in situ with WGA-Alexa Fluor 488 conjugate and DAPI to allow for the identification of cell boundary and nucleus, respectively. The quantification of blue (DAPI) fluorescence signals in each sample yielded the total number of cells in that population. Corresponding determination of red (corrole) fluorescence within each cell, corrected for background fluorescence from untreated cells, provided the number of cells containing corroles. For each corrole concentration at various time points, fluorescence data were obtained for 1,000-22,000 individual cells. Data acquisitions and analyses were performed as described (Lim P, et al. (2012), Chem Res Toxicol 25(2):400-409). The percentage of corrole-positive cells and the median fluorescence intensity (median RFU) for each treatment were plotted in a three-axis graph using Microsoft Office Excel 2007 (Microsoft Corporation).
To quantify the kinetics of intracellular uptake and accumulation of each derivative, ImageXpressultra, a laser point-scanning confocal microscope, was used for analyses. […] Cells were incubated at 37° C. in the dark for 0.25, 1, 3, or 24 h. […] Within 15 min, Complex 4 fluorescence was observable in ˜80% of ovarian cancer cells, 97% of breast cancer cells, and >99% of prostate cancer and melanoma cells, whereas up to 3 and 24 h were required to label >80% of cells from all four cancer lines with Complexes 3 and 2, respectively. […]

solubility in water = type: physicochemical

O=C(O)CCCCCNc1c(F)c(F)c(C2=C3C=CC4=[N+]3[Ga-]35[n]6c2ccc6C(c2c(F)c(F)c(F)c(F)c2F)=c2ccc([n]23)=C(c2c(F)c(F)c(F)c(F)c2F)c2ccc4[n]25)c(F)c1F (stereo not drawn) [Complex 3]
Growth inhibition, % (UACC-62): 91.6% | Growth inhibition, % (IGROV1): 55.7% | Growth inhibition, % (MOLT-4): 86.0% | Growth inhibition, % (K-562): 72.9% | Growth inhibition, % (OVCAR-8): 67.3% | Growth inhibition, % (SF-268): 65.8% | Growth inhibition, % (SK-MEL-2): 64.1% | Growth inhibition, % (MALME-3M): 50.4% | Growth inhibition, % (T-47D): 45.9% | Growth inhibition, % (SF-539): 85.3% | Growth inhibition, % (NCI-H322M): 32.9% | Growth inhibition, % (SNB-75): 30.7% | Growth inhibition, % (SK-OV-3): 32.9% | Growth inhibition, % (CAK-1): 71.7% | Growth inhibition, % (MDA-MB-468): 86.3% | Growth inhibition, % (RXF 398): 96.7% | time required to label >80% of cells from all four cancer lines [1]: up to 3 h | solubility in water (solubility in water): easily solubilized in water

— patent publication US10035806B2, “Derivatized corroles and metallocorroles and their use as imaging and therapeutic agents” (CALIFORNIA INSTITUTE OF TECHNOLOGY, priority 2015, dated 2018)
